Measured values reported in patent US6083931A, “Method of inhibiting cancer metastasis” (NGK Insulators, Ltd., priority 1997, dated 2000).
Structures can show the parent of a compound that is named as a salt.

Key:
[1] = system: AH66F cells adhering to M-cells; assay: Inhibition of adhesion of AH66F cells to M-cells under coexistence of anti-LFA-1 antibody; format: cell-based, rat
Protocol: (§1) Mesentery cells (M-cells) originating from a rat was cultivated inside a cell-cultivating well plate with a Dulbecco's Modification of Eagle's Medium (DMEM) containing 5% fetal calf serum (FCS). When the cells spread over the entire face of the well, the cells were washed with DMEM containing no FC3. Further, the cells were cultivated with DMEM containing 10 μg/ml or 100 μg/ml of sialic acid at 37° C. After 45 minutes passed, the well was washed with DMEM, and rat AH66F cells ([…]) and sialic acid at a concentration shown in FIG. 1 were added together with DMEM. The mixture was cultivated at 37° C. for one hour. After the cultivation, the mixture was stirred for 30 second, and a cultivation supernatant liquid was taken into a sample tube. Into each well was added 200 μl of fresh DMEM, and washing was similarly carried out under stirring for 15 seconds. […] Then, the number of the cells was measured by a haemacytometer under a microscope (the number of non-adhered cells).
(§2) As a control, only cancer cells were cultivated, the same operations as mentioned above were effected, and the number of the cells were measured (the number of cells in control).
(§3) The adhesive rate (%) of the cancer cells was calculated according to the following calculating formula. […]

AH66F cancer cells = assay: Life-prolonging effect upon rats with AH66F cancer cells; format: in vivo, rat; settings: for Survival dates: peritoneally administered, control 7.3 ± 0.3; for Life-prolonging percentage: vs control group
Protocol: AH66F cancer cells (1×10^6 cells) were each peritoneally administered to Donryu male rats (six week age, 100-120 g, each group--6 rats). Immediately thereafter, a solution of sialic acid (dosage: 10 mg/kg and 100 mg/kg) or physiological saline solution was peritoneally administered in a dosage of 0.5 ml (control group). Then, after sialic acid or physiological saline solution was peritoneally administered over 2 days, survival dates of the rats were observed.
The life-prolonging percentage was calculated according to the following formula. Life-prolonging percentage=[(survival dates of treated group)-(survival dates of control group)/(survival dates of control group]×100

[2] = system: rat AH66F cells adhering to mesentery cells (M-cells); assay: Inhibition of adhesion of rat AH66F cancer cells to rat mesentery cells (M-cells); format: cell-based; settings: average over four wells
From the text: The present inventors employed, as a model system for the measurement of the metastasis-inhibiting action upon the cancer cells, a system in which rat ascites hepatoma as extremely malignant cancer cells were adhered to mesenteries of a rat. They also employed a cell system as a simpler technique. As the former cancer cells, AH66F-cells were used, whereas M-cells were used as the latter mesentery cells.
as §1, with “DMEM.” for “DMEM. The mixture was cultivated at 37° C. for one hour. After the cultivation, the mixture was stirred for 30 second, and a cultivation supernatant liquid was taken into a sample tube. Into each well was added 200 μl of fresh DMEM, and washing was similarly carried out under stirring for 15 seconds.”
as §2, §3

[3] = Acute toxicity test, intravenous, male Wister-strain rats; settings: rat, in vivo, intravenous administration, sodium salts, pH 7.0

Which inhibition at 100 µg/mL ([1]; Rattus norvegicus, 100 μg/ml sialic acid under coexistence of 10 μg/ml anti-LFA-1 antibody) does the source give for CC(=O)N[C@H]1[C@H]([C@H](O)[C@H](O)CO)OC(O)(C(=O)O)C[C@@H]1O (stereo partly drawn) [sialic acid, N-acetylneuraminic acid] here?
Its inhibition at 100 µg/mL is 7%.

And the “synergistic effect on adhesion inhibition (in words)” value ([1]; sialic acid with anti-LFA-1 antibody)?
The value was “synergistic effect”.

And the “life-prolonging effect, times that of control group” value (AH66F cancer cells; 10 mg/Kg)?
The value was 1.6 times.

What about the Survival dates (AH66F cancer cells; 10 mg/Kg × 3 days) of the same molecule?
Its Survival dates is 11.5 ± 0.4.

What about the Life-prolonging percentage (AH66F cancer cells; 10 mg/Kg × 3 days) of the same molecule?
The Life-prolonging percentage was 58%.

What about the “life-prolonging effect, times that of control group” value (AH66F cancer cells; 100 mg/Kg) of the same molecule?
The value was 1.8 times.

What about the Survival dates (AH66F cancer cells; 100 mg/Kg × 3 days) of the same molecule?
The Survival dates was 13.4 ± 0.4.

And the Life-prolonging percentage (AH66F cancer cells; 100 mg/Kg × 3 days)?
The Life-prolonging percentage was 84%.

And the inhibition at 10 µg/mL ([2]; 10 μg/ml sialic acid)?
The inhibition at 10 µg/mL was 27%.

What about the inhibition at 100 µg/mL ([2]; 100 μg/ml sialic acid) of the same molecule?
Its inhibition at 100 µg/mL is 31%.

For CC(=O)N[C@H]1[C@H]([C@H](O)[C@H](O)CO)OC(O)(C(=O)O)C[C@@H]1O (stereo partly drawn) [sodium salts of sialic acid], which LD50 [3] is on record?
Its LD50 is no less than 2000 mg/kg.

For CC(=O)NC1C(O)CC(OC(CO)C(O)C2OC(OC(CO)C(O)C3OC(O)(C(=O)O)CC(O)C3NC(C)=O)(C(=O)O)CC(O)C2NC(C)=O)(C(=O)O)OC1C(O)C(O)CO (stereo not drawn) [trimer], which LD50 [3] is on record?
Its LD50 is no less than 2000 mg/kg.
